In publication PMC5218480 (PLoS ONE, 2017):

System: MV-4-11 cells
Assay: Gene expression microarray analysis (Affymetrix PrimeView) and GSEA
Format: cell-based, human
Set-up: RFU PODN (11730768_x_at) / Fold change /veh PODN (11730768_x_at) / RFU LINC00158 (11744669_a_at) / Fold change /veh LINC00158 (11744669_a_at) / RFU DUSP10 (11751237_a_at) / Fold change /veh DUSP10 (11751237_a_at) / RFU ID3 (11757404_x_at) / Fold change /veh ID3 (11757404_x_at) / RFU PLEKHG5 (11737974_s_at) / Fold change /veh PLEKHG5 (11737974_s_at) / RFU LRRC4B (11730491_at) / Fold change /veh LRRC4B (11730491_at) / RFU GIMAP4 (11747438_a_at) / Fold change /veh GIMAP4 (11747438_a_at) / RFU KRT8 (11758183_x_at) / Fold change /veh KRT8 (11758183_x_at) / RFU CNN1 (11734310_a_at) / Fold change /veh CNN1 (11734310_a_at) / RFU VPS37D (11726825_at) / Fold change /veh VPS37D (11726825_at) / RFU C10orf10 (11716522_x_at) / Fold change /veh C10orf10 (11716522_x_at) / RFU KIR2DL2 /// KIR2DL4 /// KIR2DL5A /// KIR2DL5B /// KIR2DS1 /// KIR2DS2 /// KIR2DS3 /// KIR2DS4 /// KIR3DL3 /// KIR3DL3 /// KIR3DS1 (11738374_at) / Fold change /veh KIR2DL2 /// KIR2DL4 /// KIR2DL5A /// KIR2DL5B /// KIR2DS1 /// KIR2DS2 /// KIR2DS3 /// KIR2DS4 /// KIR3DL3 /// KIR3DL3 /// KIR3DS1 (11738374_at) / RFU C1QL1 (11718748_at) / Fold change /veh C1QL1 (11718748_at) / RFU TMPRSS4 (11747572_a_at) / Fold change /veh TMPRSS4 (11747572_a_at) / RFU HAMP (11756126_x_at) / Fold change /veh HAMP (11756126_x_at) / RFU RNFT2 (11725882_a_at) / Fold change /veh RNFT2 (11725882_a_at) / RFU NR4A2 (11747474_a_at) / Fold change /veh NR4A2 (11747474_a_at) / RFU ABCC12 (11746883_a_at) / Fold change /veh ABCC12 (11746883_a_at) / RFU TMEM136 (11760407_x_at) / Fold change /veh TMEM136 (11760407_x_at) / RFU CLDN22 /// WWC2 (11732394_at) / Fold change /veh CLDN22 /// WWC2 (11732394_at) / RFU HLA-DPB1 (11760878_x_at) / Fold change /veh HLA-DPB1 (11760878_x_at) / RFU SPINT1 (11716480_a_at) / Fold change /veh SPINT1 (11716480_a_at) / RFU GAP43 (11754022_s_at) / Fold change /veh GAP43 (11754022_s_at) / RFU A4GNT (11735810_at) / Fold change /veh A4GNT (11735810_at) / RFU PRB3 (11715151_x_at) / Fold change /veh PRB3 (11715151_x_at) / RFU TUBB4B (11761932_at) / Fold change /veh TUBB4B (11761932_at) / RFU CAPN14 (11732068_a_at) / Fold change /veh CAPN14 (11732068_a_at) / RFU TMCC2 (11721928_a_at) / Fold change /veh TMCC2 (11721928_a_at) / RFU IRGQ (11745062_a_at) / Fold change /veh IRGQ (11745062_a_at) / RFU FAM174B (11720279_a_at) / Fold change /veh FAM174B (11720279_a_at) / RFU TMPRSS4 (11748680_a_at) / Fold change /veh TMPRSS4 (11748680_a_at) / RFU FAM212B (11763350_a_at) / Fold change /veh FAM212B (11763350_a_at) / RFU PLEKHG5 (11743358_a_at) / Fold change /veh PLEKHG5 (11743358_a_at) / RFU ZSCAN30 (11745921_a_at) / Fold change /veh ZSCAN30 (11745921_a_at) / RFU CMKLR1 (11741424_a_at) / Fold change /veh CMKLR1 (11741424_a_at) / RFU LOC101060620 /// MAPK8IP1 (11723275_at) / Fold change /veh LOC101060620 /// MAPK8IP1 (11723275_at) / RFU SPTSSB (11747773_x_at) / Fold change /veh SPTSSB (11747773_x_at) / RFU PRSS12 (11739890_at) / Fold change /veh PRSS12 (11739890_at) / RFU BIN1 (11741810_x_at) / Fold change /veh BIN1 (11741810_x_at) / RFU WNT11 (11732464_a_at) / Fold change /veh WNT11 (11732464_a_at) / RFU C10orf10 (11716521_a_at) / Fold change /veh C10orf10 (11716521_a_at) / RFU C5orf56 (11738089_at) / Fold change /veh C5orf56 (11738089_at) / RFU CYB561 (11721691_x_at) / Fold change /veh CYB561 (11721691_x_at) / RFU ANKRD19P (11752326_a_at) / Fold change /veh ANKRD19P (11752326_a_at) / RFU OR2T12 /// OR2T33 /// OR2T8 (11738714_s_at) / Fold change /veh OR2T12 /// OR2T33 /// OR2T8 (11738714_s_at) / RFU VCAN (11748164_a_at) / Fold change /veh VCAN (11748164_a_at) / RFU JSRP1 (11732532_at) / Fold change /veh JSRP1 (11732532_at) / RFU KRTAP10-11 (11738290_x_at) / Fold change /veh KRTAP10-11 (11738290_x_at) / RFU MYO3A (11730013_a_at) / Fold change /veh MYO3A (11730013_a_at) / RFU EBF3 (11725865_a_at) / Fold change /veh EBF3 (11725865_a_at) / RFU CAMK2N1 (11719241_x_at) / Fold change /veh CAMK2N1 (11719241_x_at) / RFU C5orf56 (11738088_a_at) / Fold change /veh C5orf56 (11738088_a_at) / RFU OLFML3 (11715873_a_at) / Fold change /veh OLFML3 (11715873_a_at) / RFU LOC100653217 /// NTM (11731650_a_at) / Fold change /veh LOC100653217 /// NTM (11731650_a_at) / RFU MAPK11 (11762145_a_at) / Fold change /veh MAPK11 (11762145_a_at) / RFU FIZ1 (11724087_x_at) / Fold change /veh FIZ1 (11724087_x_at) / RFU OASL (11726364_x_at) / Fold change /veh OASL (11726364_x_at) / RFU SOX15 (11748057_x_at) / Fold change /veh SOX15 (11748057_x_at) / RFU CD79A (11719716_a_at) / Fold change /veh CD79A (11719716_a_at) / RFU HIST1H1D (11736915_at) / Fold change /veh HIST1H1D (11736915_at) / RFU CASKIN2 (11723855_a_at) / Fold change /veh CASKIN2 (11723855_a_at) / RFU LOC730098 (11760151_x_at) / Fold change /veh LOC730098 (11760151_x_at) / RFU OR4N2 (11742367_at) / Fold change /veh OR4N2 (11742367_at) / RFU PRRT2 (11749266_a_at) / Fold change /veh PRRT2 (11749266_a_at) / RFU SNX32 (11753110_a_at) / Fold change /veh SNX32 (11753110_a_at) / RFU CDHR5 (11726645_a_at) / Fold change /veh CDHR5 (11726645_a_at) / RFU RCAN1 (11760418_a_at) / Fold change /veh RCAN1 (11760418_a_at) / RFU FAM167A (11723789_a_at) / Fold change /veh FAM167A (11723789_a_at) / RFU FAM26E (11764081_at) / Fold change /veh FAM26E (11764081_at) / RFU ISYNA1 (11749810_s_at) / Fold change /veh ISYNA1 (11749810_s_at) / RFU ACY1 (11761880_at) / Fold change /veh ACY1 (11761880_at) / RFU 11764098_at / Fold change /veh 11764098_at / RFU SAMD14 (11745864_x_at) / Fold change /veh SAMD14 (11745864_x_at) / RFU NPB (11741838_a_at) / Fold change /veh NPB (11741838_a_at) / RFU TMPRSS6 (11731388_a_at) / Fold change /veh TMPRSS6 (11731388_a_at) / RFU KRTAP10-2 (11738614_at) / Fold change /veh KRTAP10-2 (11738614_at) / RFU ARHGAP8 /// PRR5-ARHGAP8 (11727945_x_at) / Fold change /veh ARHGAP8 /// PRR5-ARHGAP8 (11727945_x_at) / RFU KRTAP5-7 /// NADSYN1 (11734609_at) / Fold change /veh KRTAP5-7 /// NADSYN1 (11734609_at) / RFU RASL12 (11751679_a_at) / Fold change /veh RASL12 (11751679_a_at) / RFU CDKN2B (11736163_a_at) / Fold change /veh CDKN2B (11736163_a_at) / RFU PRF1 (11729649_at) / Fold change /veh PRF1 (11729649_at) / RFU, ZNF638 /// ZNF638-IT1 / Fold change vs veh, ZNF638 /// ZNF638-IT1 / RFU, PANK3 / Fold change vs veh, PANK3 / RFU, SH3YL1 / Fold change vs veh, SH3YL1 / RFU, ZEB2 / Fold change vs veh, ZEB2 / RFU, NRIP1 / Fold change vs veh, NRIP1 / RFU, PTTG1IP / Fold change vs veh, PTTG1IP / RFU, CAPN2 / Fold change vs veh, CAPN2 / RFU, MED14 / Fold change vs veh, MED14 / RFU, SNORA58 / Fold change vs veh, SNORA58 / RFU, C1orf63 / Fold change vs veh, C1orf63 / RFU, LRRFIP1 / Fold change vs veh, LRRFIP1 / RFU, NDUFAF7 / Fold change vs veh, NDUFAF7 / RFU, SLC12A2 / Fold change vs veh, SLC12A2 / RFU, IBTK / Fold change vs veh, IBTK / RFU, ESF1 / Fold change vs veh, ESF1 / Fold change vs veh, TMEM50B / RFU, TAOK1 / Fold change vs veh, TAOK1 / RFU, ACBD3 / Fold change vs veh, ACBD3 / RFU, TMA16 / Fold change vs veh, TMA16 / RFU, RWDD3 / Fold change vs veh, RWDD3 / RFU, BCAT1 / Fold change vs veh, BCAT1 / RFU, EDEM3 / Fold change vs veh, EDEM3 / RFU, TMEM33 / Fold change vs veh, TMEM33 / RFU, WDR75 / Fold change vs veh, WDR75 / RFU, AHCTF1 / Fold change vs veh, AHCTF1 / RFU, TFRC / Fold change vs veh, TFRC / RFU, ZDHHC17 / Fold change vs veh, ZDHHC17 / RFU, NOM1 / Fold change vs veh, NOM1 / RFU, ARL8B / Fold change vs veh, ARL8B / RFU, ZBTB11 / Fold change vs veh, ZBTB11 / RFU, TAMM41 / Fold change vs veh, TAMM41 / RFU, KIAA1704 /// LOC100996395 / Fold change vs veh, KIAA1704 /// LOC100996395 / RFU, ING1 / Fold change vs veh, ING1 / RFU, TRMT61B / Fold change vs veh, TRMT61B / RFU, FUBP3 / Fold change vs veh, FUBP3 / RFU, TP53 / Fold change vs veh, TP53 / RFU, TNKS2 / Fold change vs veh, TNKS2 / RFU, ZFP14 / Fold change vs veh, ZFP14 / RFU, ACTR2 / Fold change vs veh, ACTR2 / RFU, PPP3R1 / Fold change vs veh, PPP3R1 / RFU, PIK3R1 / Fold change vs veh, PIK3R1 / RFU, HNRNPA1 / Fold change vs veh, HNRNPA1 / RFU, RNF170 / Fold change vs veh, RNF170 / RFU, ZNF28 / Fold change vs veh, ZNF28 / RFU, RNGTT / Fold change vs veh, RNGTT / RFU, OGT / Fold change vs veh, OGT / RFU, BRD1 / Fold change vs veh, BRD1 / RFU, MARS / Fold change vs veh, MARS / RFU, ZNF655 / Fold change vs veh, ZNF655 / RFU, FAHD1 / Fold change vs veh, FAHD1 / RFU, BDP1 / Fold change vs veh, BDP1 / RFU, LRRCC1 / Fold change vs veh, LRRCC1 / RFU, ARID1A / Fold change vs veh, ARID1A / RFU, ZNF146 / Fold change vs veh, ZNF146 / RFU, ZNF330 / Fold change vs veh, ZNF330 / RFU, GPN3 / Fold change vs veh, GPN3 / RFU, C9orf123 / Fold change vs veh, C9orf123 / RFU, N4BP2L2 / Fold change vs veh, N4BP2L2 / RFU, ARFIP1 / Fold change vs veh, ARFIP1 / RFU, FAM179B / Fold change vs veh, FAM179B / RFU, BCL10 / Fold change vs veh, BCL10 / RFU, UHRF1BP1L / Fold change vs veh, UHRF1BP1L / RFU, BET1 / Fold change vs veh, BET1 / RFU, CNOT2 / Fold change vs veh, CNOT2 / RFU, ZNF268 / Fold change vs veh, ZNF268 / Fold change vs veh, ZNF507 / RFU, DGCR2 / Fold change vs veh, DGCR2 / RFU, WDSUB1 / Fold change vs veh, WDSUB1 / Fold change vs veh, HSP90B1 /// MIR3652 / RFU, ADSS / Fold change vs veh, ADSS / RFU, GK / Fold change vs veh, GK / RFU, ZNF148 / Fold change vs veh, ZNF148 / RFU, TAF9 / Fold change vs veh, TAF9 / RFU, SLC1A5 / Fold change vs veh, SLC1A5 / RFU, SLMO2 / Fold change vs veh, SLMO2 / RFU, ABCC4 / Fold change vs veh, ABCC4 / RFU, LOC101060439 /// RAP1B / Fold change vs veh, LOC101060439 /// RAP1B / RFU, RFX7 / Fold change vs veh, RFX7 / RFU, GTPBP10 / Fold change vs veh, GTPBP10 / RFU, CNEP1R1 / Fold change vs veh, CNEP1R1 / RFU, BIVM-ERCC5 /// ERCC5 / Fold change vs veh, BIVM-ERCC5 /// ERCC5 / RFU, ILF3 / Fold change vs veh, ILF3 / RFU 11762660_at / Fold change /veh 11762660_at / RFU VCAN (11757783_s_at) / Fold change /veh VCAN (11757783_s_at) / RFU DDX43 (11728927_at) / Fold change /veh DDX43 (11728927_at) / RFU KRT8 (11758188_x_at) / Fold change /veh KRT8 (11758188_x_at) / RFU NKD1 (11759106_at) / Fold change /veh NKD1 (11759106_at) / RFU SRD5A1 (11742802_a_at) / Fold change /veh SRD5A1 (11742802_a_at) / RFU TPSAB1 /// TPSB2 (11721975_s_at) / Fold change /veh TPSAB1 /// TPSB2 (11721975_s_at) / RFU GSTM3 (11746129_a_at) / Fold change /veh GSTM3 (11746129_a_at) / RFU IL23R (11737362_x_at) / Fold change /veh IL23R (11737362_x_at) / RFU TMEM51 (11727254_a_at) / Fold change /veh TMEM51 (11727254_a_at) / RFU PIWIL2 (11732686_x_at) / Fold change /veh PIWIL2 (11732686_x_at) / RFU ORM1 (11744905_x_at) / Fold change /veh ORM1 (11744905_x_at) / RFU CCDC152 (11743942_at) / Fold change /veh CCDC152 (11743942_at) / RFU ECM1 (11717891_a_at) / Fold change /veh ECM1 (11717891_a_at) / RFU IL23R (11748794_a_at) / Fold change /veh IL23R (11748794_a_at) / RFU TNFAIP8L3 (11732012_x_at) / Fold change /veh TNFAIP8L3 (11732012_x_at) / RFU MBOAT4 (11741988_at) / Fold change /veh MBOAT4 (11741988_at) / RFU 11764193_at / Fold change /veh 11764193_at / RFU TMEM53 (11763286_at) / Fold change /veh TMEM53 (11763286_at) / RFU MAGEB2 (11727129_at) / Fold change /veh MAGEB2 (11727129_at) / RFU TMEM200A (11744735_a_at) / Fold change /veh TMEM200A (11744735_a_at) / RFU CCDC152 (11751479_a_at) / Fold change /veh CCDC152 (11751479_a_at) / RFU FAM211A (11726209_a_at) / Fold change /veh FAM211A (11726209_a_at) / RFU RGS16 (11746705_a_at) / Fold change /veh RGS16 (11746705_a_at) / RFU VCAN (11755009_s_at) / Fold change /veh VCAN (11755009_s_at) / RFU RHOB (11743442_s_at) / Fold change /veh RHOB (11743442_s_at) / RFU RGS16 (11720943_a_at) / Fold change /veh RGS16 (11720943_a_at) / RFU RGS16 (11720944_at) / Fold change /veh RGS16 (11720944_at) / RFU, VPS4B / Fold change vs veh, VPS4B / RFU, CREB1 / Fold change vs veh, CREB1 / RFU, DNAJC13 / Fold change vs veh, DNAJC13 / RFU, GNAQ / Fold change vs veh, GNAQ / RFU, CDK5R1 / Fold change vs veh, CDK5R1 / RFU, ZRANB3 / Fold change vs veh, ZRANB3 / RFU, CUL4A / Fold change vs veh, CUL4A / RFU, CCNY / Fold change vs veh, CCNY / RFU, UFL1 / Fold change vs veh, UFL1 / RFU, COG3 / Fold change vs veh, COG3 / RFU, DIAPH2 / Fold change vs veh, DIAPH2 / RFU, SKA2 / Fold change vs veh, SKA2 / RFU, AFF3 / Fold change vs veh, AFF3 / RFU, LMF1 / Fold change vs veh, LMF1 / RFU, IPO11 / Fold change vs veh, IPO11 / RFU, DFFB / Fold change vs veh, DFFB / RFU, FOXP1 / Fold change vs veh, FOXP1 / RFU, CARD8 / Fold change vs veh, CARD8 / RFU, STRN3 / Fold change vs veh, STRN3 / RFU, ADK / Fold change vs veh, ADK / RFU, RASSF2 / Fold change vs veh, RASSF2 / RFU, WIPF1 / Fold change vs veh, WIPF1 / RFU, LARP1B / Fold change vs veh, LARP1B / RFU, RASA1 / Fold change vs veh, RASA1 / RFU, RB1 / Fold change vs veh, RB1 / RFU, PPFIA1 / Fold change vs veh, PPFIA1 / RFU, MAT2A / Fold change vs veh, MAT2A / RFU, CCT5 / Fold change vs veh, CCT5 / RFU, WDR92 / Fold change vs veh, WDR92 / RFU, CUX1 / Fold change vs veh, CUX1 / RFU, TTC7A / Fold change vs veh, TTC7A / RFU, TMEM135 / Fold change vs veh, TMEM135 / RFU, DEPTOR / Fold change vs veh, DEPTOR / RFU, CPM / Fold change vs veh, CPM / RFU, DNAJB6 / Fold change vs veh, DNAJB6 / RFU, CACNA2D3 / Fold change vs veh, CACNA2D3 / RFU, DTX4 / Fold change vs veh, DTX4 / RFU, TFCP2 / Fold change vs veh, TFCP2 / RFU, GMCL1 /// GMCL1P1 / Fold change vs veh, GMCL1 /// GMCL1P1 / RFU, AEBP2 / Fold change vs veh, AEBP2 / RFU, SNHG1 /// SNORD22 /// SNORD25 /// SNORD26 /// SNORD27 /// SNORD28 /// SNORD29 /// SNORD31 / Fold change vs veh, SNHG1 /// SNORD22 /// SNORD25 /// SNORD26 /// SNORD27 /// SNORD28 /// SNORD29 /// SNORD31 / Fold change (Aza/veh), C12orf56 (ProbeSet 11735607_a_at) / Fold change (ACY-1035/veh), C12orf56 (ProbeSet 11735607_a_at) / Fold change (Aza/veh), FGFR1OP (ProbeSet 11751329_s_at) / Fold change (ACY-1035/veh), FGFR1OP (ProbeSet 11751329_s_at) / Fold change (Aza/veh), VPS36 (ProbeSet 11739960_a_at) / Fold change (ACY-1035/veh), VPS36 (ProbeSet 11739960_a_at) / RFU SYPL1 (11715823_x_at) / Fold change /veh SYPL1 (11715823_x_at) / RFU IGFBP7 (11715501_s_at) / Fold change /veh IGFBP7 (11715501_s_at) / RFU REEP3 (11722064_at) / Fold change /veh REEP3 (11722064_at) / RFU IGLL1 (11728026_x_at) / Fold change /veh IGLL1 (11728026_x_at): dose or concentration left out as unconfirmed
Conditions: ProbeSet 11719185_x_at; LIST B

## Nc1ccc(-c2cccs2)cc1NC(=O)c1ccc2c(c1)cc(C1CC1)n2CCN1CCOCC1 [ACY-1035]
  RFU, N4BP2L2: 104.68 RFU
